Test results taken from ChEMBL document CHEMBL5723035, “Affinity Biochemical Literature for EUbOPEN Chemogenomic Library” (2024).
Non-standard residues stand in square brackets, D forms with d. Residues, ends and D or L forms follow the SMILES beside them. *: point of attachment. Lys(Me,2-norbornyl) = CN(CCCC[C@H](N)C(=O)O)C1CC2CCC1C2; Benzoyl(4-tBu) = CC(C)(C)c1ccc(C(=O)*)cc1; Boc = CC(C)(C)OC(=O)*; CH2Cl = ClC*

Tests used:
[1] = target: Calpain-2 catalytic subunit (Homo sapiens, UniProt P17655); assay: Affinity Biochemical interaction: (Colorimetric assay, lysis of casein substrate and analysis of protease inhibition by reading wavelength at 595 nm) EUB0002195a CAPN2; type: functional; set-up: mode of action Inhibitor, recommended concentration 1 uM
Cathepsin B = Cathepsin B (Homo sapiens, UniProt P07858); assay: Affinity Biochemical interaction: (Colorimetric assay, lysis of casein substrate and analysis of protease inhibition by reading wavelength at 595 nm) EUB0002195a CTSB; type: functional; set-up: mode of action Inhibitor, recommended concentration 1 uM
Procathepsin L = Procathepsin L (Homo sapiens, UniProt P07711); assay: Affinity Biochemical interaction: (Colorimetric assay, lysis of casein substrate and analysis of protease inhibition by reading wavelength at 595 nm) EUB0002195a CTSL; type: functional; set-up: mode of action Inhibitor, recommended concentration 1 uM
[2] = target: T1, Chromobox protein homolog 7 (Homo sapiens, UniProt O95931); assay: Affinity Biochemical interaction: (ITC) EUB0001090a CBX7; set-up: mode of action Inhibitor, recommended concentration 1 uM
T1 sequence (O95931 whole entry): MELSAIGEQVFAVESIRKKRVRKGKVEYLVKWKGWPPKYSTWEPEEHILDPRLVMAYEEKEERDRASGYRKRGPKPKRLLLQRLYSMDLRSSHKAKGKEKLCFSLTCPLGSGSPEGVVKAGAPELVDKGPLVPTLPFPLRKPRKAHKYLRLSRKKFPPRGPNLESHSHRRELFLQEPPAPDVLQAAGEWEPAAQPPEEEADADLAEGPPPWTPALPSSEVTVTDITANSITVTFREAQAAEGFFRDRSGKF

[3] = target: T1, Chromobox protein homolog 7; assay: Affinity Biochemical interaction: (SPR) EUB0001090a CBX7; set-up: mode of action Inhibitor, recommended concentration 1 uM
[4] = target: T1, Chromobox protein homolog 7; assay: Affinity Biochemical interaction: (AlphaScreen) EUB0001090a CBX7; type: functional; set-up: mode of action Inhibitor, recommended concentration 1 uM
Caspase-3 [5] = target: T2, Caspase-3 (Homo sapiens, UniProt P42574); assay: Affinity Biochemical interaction: (enzymatic assay (fluorogenic substrate cleavage)) EUB0002175aAD CASP3; type: functional; set-up: mode of action Inhibitor, recommended concentration 1 uM
T2 sequence (P42574 whole entry): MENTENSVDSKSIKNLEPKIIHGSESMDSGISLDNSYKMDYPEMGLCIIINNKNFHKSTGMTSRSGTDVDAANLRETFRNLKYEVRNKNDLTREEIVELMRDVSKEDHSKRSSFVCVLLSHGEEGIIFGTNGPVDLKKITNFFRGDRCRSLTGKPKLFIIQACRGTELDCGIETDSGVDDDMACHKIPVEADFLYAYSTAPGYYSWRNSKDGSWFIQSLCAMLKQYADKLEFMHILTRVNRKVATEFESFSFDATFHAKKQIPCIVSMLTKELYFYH

[6] = target: T3, Bromodomain-containing protein 2 (Homo sapiens, UniProt P25440); assay: (§1) Affinity Biochemical interaction: (BROMOscan assay) EUB0002282a BRD2; set-up: mode of action Inhibitor, recommended concentration 1 uM
[7] = target: T3, Bromodomain-containing protein 2; assay: as §1; set-up: mode of action Inhibitor, recommended concentration 1 uM; remark: listed apart in the source
[8] = target: T4, Bromodomain-containing protein 3 (Homo sapiens, UniProt Q15059); assay: (§2) Affinity Biochemical interaction: (BROMOscan assay) EUB0002282a BRD3; set-up: mode of action Inhibitor, recommended concentration 1 uM
[9] = target: T4, Bromodomain-containing protein 3; assay: as §2; set-up: mode of action Inhibitor, recommended concentration 1 uM; remark: listed apart in the source
[10] = target: T5, Bromodomain-containing protein 4 (Homo sapiens, UniProt O60885); assay: (§3) Affinity Biochemical interaction: (AlphaLISA) EUB0002282a BRD4; type: functional; set-up: mode of action Inhibitor, recommended concentration 1 uM
[11] = target: T5, Bromodomain-containing protein 4; assay: as §3; type: functional; set-up: mode of action Inhibitor, recommended concentration 1 uM; remark: listed apart in the source
[12] = target: Bromodomain testis-specific protein (Homo sapiens, UniProt Q58F21); assay: Affinity Biochemical interaction: (BROMOscan assay) EUB0002282a BRDT; set-up: mode of action Inhibitor, recommended concentration 1 uM
[13] = target: Protein arginine N-methyltransferase 5 (Homo sapiens, UniProt O14744); assay: Affinity Biochemical interaction: (SPR) EUB0002223a PRMT5; set-up: mode of action Inhibitor, recommended concentration 1 uM
[14] = target: Protein arginine N-methyltransferase 7 (Homo sapiens, UniProt Q9NVM4); assay: Affinity Biochemical interaction: (SPR) EUB0002223a PRMT7; set-up: mode of action Inhibitor, recommended concentration 1 uM
Caspase-8 [15] = target: T6, Caspase-8 (Homo sapiens, UniProt Q14790); assay: Affinity Biochemical interaction: (enzymatic assay (fluorogenic substrate cleavage)) EUB0002177aAD CASP8; type: functional; set-up: mode of action Inhibitor, recommended concentration 1 uM
Caspase-9 [16] = target: T7, Caspase-9 (Homo sapiens, UniProt P55211); assay: Affinity Biochemical interaction: (peptide substrate detection probe bound to magnetic beads, detection of liberated fluorophores) EUB0002203aAD CASP9; type: functional; set-up: mode of action Inhibitor, recommended concentration 1 uM
[17] = target: Histone-lysine N-methyltransferase SMYD3 (Homo sapiens, UniProt Q9H7B4); assay: Affinity Biochemical interaction: (inhibition of methylation activity, scintillation proximity assay utilizing [3 H]-SAM with specific product capture of biotin-tagged peptides on streptavidin SPA beads) EUB0002243aAD SMYD3; type: functional; set-up: mode of action Inhibitor, recommended concentration 1 uM
Histone deacetylase 3 = Histone deacetylase 3 (Homo sapiens, UniProt O15379)
Caspase-1 = Caspase-1 (Homo sapiens, UniProt P29466); assay: Affinity Biochemical interaction: (enzymatic assay (fluorogenic substrate cleavage)) EUB0002190aAD CASP1; type: functional; set-up: mode of action Inhibitor, recommended concentration 1 uM
Caspase-3 [18] = target: T2, Caspase-3; assay: Affinity Biochemical interaction: (enzymatic assay (fluorogenic substrate cleavage)) EUB0002190aAD CASP3; type: functional; set-up: mode of action Inhibitor, recommended concentration 1 uM
Caspase-6 = Caspase-6 (Homo sapiens, UniProt P55212); assay: Affinity Biochemical interaction: (enzymatic assay (fluorogenic substrate cleavage)) EUB0002190aAD CASP6; type: functional; set-up: mode of action Inhibitor, recommended concentration 1 uM
Caspase-8 [19] = target: T6, Caspase-8; assay: Affinity Biochemical interaction: (enzymatic assay (fluorogenic substrate cleavage)) EUB0002190aAD CASP8; type: functional; set-up: mode of action Inhibitor, recommended concentration 1 uM
Caspase-9 [20] = target: T7, Caspase-9; assay: Affinity Biochemical interaction: (enzymatic assay (fluorogenic substrate cleavage)) EUB0002190aAD CASP9; type: functional; set-up: mode of action Inhibitor, recommended concentration 1 uM
Caspase-2 = Caspase-2 (Homo sapiens, UniProt P42575); assay: Affinity Biochemical interaction: (enzymatic assay (fluorogenic substrate cleavage)) EUB0002196a CASP2; type: functional; set-up: mode of action Inhibitor, recommended concentration 1 uM
Caspase-3 [21] = target: T2, Caspase-3; assay: Affinity Biochemical interaction: (enzymatic assay (fluorogenic substrate cleavage)) EUB0002196a CASP3; type: functional; set-up: mode of action Inhibitor, recommended concentration 1 uM
Caspase-7 = Caspase-7 (Homo sapiens, UniProt P55210); assay: Affinity Biochemical interaction: (enzymatic assay (fluorogenic substrate cleavage)) EUB0002196a CASP7; type: functional; set-up: mode of action Inhibitor, recommended concentration 1 uM
[22] = target: Monocarboxylate transporter 1 (Homo sapiens, UniProt P53985); assay: Affinity Biochemical interaction: (Displacement of radiolabelled [3H]-BAY-8002) EUB0001677b SLC16A1; set-up: mode of action Inhibitor, recommended concentration 1 uM
Sequence of Monocarboxylate transporter 1 (P53985 whole entry): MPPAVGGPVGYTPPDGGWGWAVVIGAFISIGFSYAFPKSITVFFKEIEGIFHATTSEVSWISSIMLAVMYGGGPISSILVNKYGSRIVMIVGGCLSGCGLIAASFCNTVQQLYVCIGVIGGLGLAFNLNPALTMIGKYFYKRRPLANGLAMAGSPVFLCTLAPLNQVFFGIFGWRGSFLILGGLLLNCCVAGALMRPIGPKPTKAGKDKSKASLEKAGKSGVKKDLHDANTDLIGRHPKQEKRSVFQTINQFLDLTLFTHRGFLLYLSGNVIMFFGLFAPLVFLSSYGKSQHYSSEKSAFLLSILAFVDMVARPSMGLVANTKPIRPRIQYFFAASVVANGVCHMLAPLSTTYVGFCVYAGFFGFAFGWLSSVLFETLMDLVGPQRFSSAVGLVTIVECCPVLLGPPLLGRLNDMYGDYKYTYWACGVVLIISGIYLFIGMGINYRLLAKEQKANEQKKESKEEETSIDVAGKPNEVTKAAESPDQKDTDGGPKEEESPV

T4 sequence (Q15059 whole entry): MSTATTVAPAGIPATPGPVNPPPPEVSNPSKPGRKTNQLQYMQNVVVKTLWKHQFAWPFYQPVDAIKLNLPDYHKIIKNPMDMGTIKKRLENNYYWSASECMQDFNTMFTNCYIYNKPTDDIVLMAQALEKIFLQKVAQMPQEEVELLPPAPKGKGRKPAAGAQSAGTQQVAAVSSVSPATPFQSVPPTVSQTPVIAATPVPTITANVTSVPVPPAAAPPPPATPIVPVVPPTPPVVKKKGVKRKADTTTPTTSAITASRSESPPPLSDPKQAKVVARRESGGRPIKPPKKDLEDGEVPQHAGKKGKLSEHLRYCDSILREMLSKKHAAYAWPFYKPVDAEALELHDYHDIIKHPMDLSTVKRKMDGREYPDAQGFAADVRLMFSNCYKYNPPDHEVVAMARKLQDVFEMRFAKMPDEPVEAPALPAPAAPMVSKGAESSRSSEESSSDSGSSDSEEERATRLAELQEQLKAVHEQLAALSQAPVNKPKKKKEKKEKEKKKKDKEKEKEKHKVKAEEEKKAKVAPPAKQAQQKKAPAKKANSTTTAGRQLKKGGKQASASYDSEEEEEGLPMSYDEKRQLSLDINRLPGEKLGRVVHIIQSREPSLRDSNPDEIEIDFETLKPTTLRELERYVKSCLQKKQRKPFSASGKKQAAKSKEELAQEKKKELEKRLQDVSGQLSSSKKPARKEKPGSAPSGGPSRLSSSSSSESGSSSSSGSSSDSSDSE
T6 sequence (Q14790 217-374 limits assumed): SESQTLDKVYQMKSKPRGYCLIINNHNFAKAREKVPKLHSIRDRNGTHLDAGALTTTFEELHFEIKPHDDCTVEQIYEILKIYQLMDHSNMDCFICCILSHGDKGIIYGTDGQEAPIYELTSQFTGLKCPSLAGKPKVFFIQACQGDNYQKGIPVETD
T6 sequence (Q14790 385-479 limits assumed): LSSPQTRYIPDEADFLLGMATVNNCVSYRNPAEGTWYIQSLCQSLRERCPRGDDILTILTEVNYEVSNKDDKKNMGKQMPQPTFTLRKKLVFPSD
Sequence of Histone-lysine N-methyltransferase SMYD3 (Q9H7B4 whole entry): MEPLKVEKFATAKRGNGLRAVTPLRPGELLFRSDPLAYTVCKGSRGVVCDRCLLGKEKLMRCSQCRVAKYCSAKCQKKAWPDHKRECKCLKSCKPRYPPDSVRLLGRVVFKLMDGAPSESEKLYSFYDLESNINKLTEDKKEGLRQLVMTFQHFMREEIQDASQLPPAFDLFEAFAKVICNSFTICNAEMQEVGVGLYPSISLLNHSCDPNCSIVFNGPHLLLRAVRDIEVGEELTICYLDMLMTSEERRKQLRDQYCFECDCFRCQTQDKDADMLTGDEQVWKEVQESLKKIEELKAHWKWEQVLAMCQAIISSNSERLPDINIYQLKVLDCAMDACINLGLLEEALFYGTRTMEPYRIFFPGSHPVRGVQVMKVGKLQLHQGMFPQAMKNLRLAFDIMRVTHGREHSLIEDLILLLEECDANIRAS
T3 sequence (P25440 whole entry): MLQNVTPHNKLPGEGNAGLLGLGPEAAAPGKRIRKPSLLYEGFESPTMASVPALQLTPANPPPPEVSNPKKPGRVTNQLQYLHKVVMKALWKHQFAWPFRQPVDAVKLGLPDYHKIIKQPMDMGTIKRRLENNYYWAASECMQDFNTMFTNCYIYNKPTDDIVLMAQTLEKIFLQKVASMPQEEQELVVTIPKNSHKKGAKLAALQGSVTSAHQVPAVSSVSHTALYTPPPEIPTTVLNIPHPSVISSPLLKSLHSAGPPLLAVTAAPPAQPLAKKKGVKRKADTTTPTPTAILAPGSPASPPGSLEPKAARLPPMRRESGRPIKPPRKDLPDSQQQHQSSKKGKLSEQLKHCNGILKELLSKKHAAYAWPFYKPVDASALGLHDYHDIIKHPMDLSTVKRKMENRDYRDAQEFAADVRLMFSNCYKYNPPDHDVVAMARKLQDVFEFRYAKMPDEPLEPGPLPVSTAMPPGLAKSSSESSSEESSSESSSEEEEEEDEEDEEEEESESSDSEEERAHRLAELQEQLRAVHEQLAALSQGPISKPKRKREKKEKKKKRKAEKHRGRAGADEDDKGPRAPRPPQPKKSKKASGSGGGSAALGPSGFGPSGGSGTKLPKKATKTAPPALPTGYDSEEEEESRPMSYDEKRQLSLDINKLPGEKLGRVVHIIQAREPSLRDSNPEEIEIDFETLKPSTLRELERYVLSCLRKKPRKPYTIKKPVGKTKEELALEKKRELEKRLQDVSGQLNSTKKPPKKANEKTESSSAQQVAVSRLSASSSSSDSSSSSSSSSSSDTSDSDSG
T7 sequence (P55211 1-315 limits assumed): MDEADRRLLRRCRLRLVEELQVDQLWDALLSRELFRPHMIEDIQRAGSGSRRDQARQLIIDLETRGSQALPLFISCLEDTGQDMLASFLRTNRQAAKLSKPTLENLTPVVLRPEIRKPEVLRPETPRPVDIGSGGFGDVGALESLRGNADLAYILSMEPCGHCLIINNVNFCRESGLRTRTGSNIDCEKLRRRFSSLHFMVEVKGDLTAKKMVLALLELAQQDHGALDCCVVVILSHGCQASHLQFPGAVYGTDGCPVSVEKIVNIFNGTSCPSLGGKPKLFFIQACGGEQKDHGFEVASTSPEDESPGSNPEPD
T7 sequence (P55211 331-416 limits assumed): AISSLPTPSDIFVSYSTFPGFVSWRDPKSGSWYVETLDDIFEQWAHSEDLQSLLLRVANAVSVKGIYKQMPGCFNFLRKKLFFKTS
Sequence of Caspase-2 (P42575 170-325 limits assumed): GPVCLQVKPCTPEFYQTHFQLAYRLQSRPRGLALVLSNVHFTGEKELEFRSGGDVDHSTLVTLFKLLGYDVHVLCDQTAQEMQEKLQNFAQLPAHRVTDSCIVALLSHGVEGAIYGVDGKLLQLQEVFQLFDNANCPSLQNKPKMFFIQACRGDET
Sequence of Caspase-2 (P42575 334-452 limits assumed): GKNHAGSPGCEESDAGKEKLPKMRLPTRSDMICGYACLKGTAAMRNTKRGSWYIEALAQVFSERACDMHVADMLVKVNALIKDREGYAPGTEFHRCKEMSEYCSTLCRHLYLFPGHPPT
Sequence of Caspase-1 (P29466 120-297 limits assumed): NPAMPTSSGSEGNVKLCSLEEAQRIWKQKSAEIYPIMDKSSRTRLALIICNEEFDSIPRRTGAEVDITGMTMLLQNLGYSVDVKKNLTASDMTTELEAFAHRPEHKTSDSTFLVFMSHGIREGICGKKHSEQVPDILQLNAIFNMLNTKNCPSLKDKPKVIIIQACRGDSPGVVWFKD
Sequence of Caspase-1 (P29466 317-404 limits assumed): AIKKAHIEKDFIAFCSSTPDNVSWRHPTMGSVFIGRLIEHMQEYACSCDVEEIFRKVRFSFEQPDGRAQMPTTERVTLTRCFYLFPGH
Sequence of Calpain-2 catalytic subunit (P17655 whole entry): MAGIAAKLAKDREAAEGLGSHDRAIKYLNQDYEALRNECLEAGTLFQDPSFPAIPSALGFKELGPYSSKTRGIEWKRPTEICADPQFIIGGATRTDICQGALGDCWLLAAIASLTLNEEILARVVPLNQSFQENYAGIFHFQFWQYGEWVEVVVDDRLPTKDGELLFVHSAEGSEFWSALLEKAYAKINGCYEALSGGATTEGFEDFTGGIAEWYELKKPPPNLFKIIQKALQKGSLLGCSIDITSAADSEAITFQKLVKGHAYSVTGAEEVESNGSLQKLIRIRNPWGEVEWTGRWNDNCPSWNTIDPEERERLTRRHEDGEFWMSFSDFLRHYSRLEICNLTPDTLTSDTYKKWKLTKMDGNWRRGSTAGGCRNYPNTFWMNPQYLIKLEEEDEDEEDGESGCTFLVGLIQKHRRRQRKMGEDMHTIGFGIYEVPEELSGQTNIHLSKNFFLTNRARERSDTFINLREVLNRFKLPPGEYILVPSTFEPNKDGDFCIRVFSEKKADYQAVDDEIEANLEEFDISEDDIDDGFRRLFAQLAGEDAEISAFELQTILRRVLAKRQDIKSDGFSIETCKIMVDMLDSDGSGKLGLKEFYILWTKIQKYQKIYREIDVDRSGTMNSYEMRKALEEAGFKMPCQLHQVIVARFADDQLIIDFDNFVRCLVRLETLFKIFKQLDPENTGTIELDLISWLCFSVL
Sequence of Caspase-6 (P55212 24-179 limits assumed): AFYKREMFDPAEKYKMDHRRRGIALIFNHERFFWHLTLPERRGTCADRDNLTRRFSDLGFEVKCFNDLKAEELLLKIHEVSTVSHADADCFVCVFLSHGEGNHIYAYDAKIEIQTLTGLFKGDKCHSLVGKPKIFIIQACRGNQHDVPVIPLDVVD
Sequence of Caspase-6 (P55212 194-293 limits assumed): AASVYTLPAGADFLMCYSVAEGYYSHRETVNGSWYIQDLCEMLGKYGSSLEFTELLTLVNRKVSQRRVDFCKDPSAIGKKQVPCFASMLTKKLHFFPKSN

With CC(C)C[C@@H](C=O)NC(=O)[C@@H](NS(=O)(=O)c1ccc(F)cc1)C(C)C the IC50 [1] was 78 nM, the IC50 (Cathepsin B) was 15 nM and the IC50 (Procathepsin L) was 1.6 nM.
COC(=O)[C@H](CO)NC(=O)[C@H](CCCCN(C)C1CC2CCC1C2)NC(=O)[C@H](CC(C)C)NC(=O)[C@H](C)NC(=O)[C@H](Cc1ccccc1)NC(=O)c1ccc(C(C)(C)C)cc1 (stereo partly specified) ({Benzoyl(4-tBu)}-FAL[Lys(Me,2-norbornyl)]S-OMe) was tested, and the Kd [2] was 59 nM, the Kd [3] was 53.8 nM and the IC50 [4] was 20 nM.
CSCC[C@H](NC(=O)[C@H](CC(=O)O)NC(C)=O)C(=O)N[C@@H](CCC(N)=O)C(=O)N[C@H](C=O)CC(=O)O (Ac-DMQD-aldehyde) gave a Ki (Caspase-3 [5]) of 13.3 nM.
Cc1cc(-c2ccc3nc(C4CCOCC4)n(CCOC(F)(F)F)c3c2)cn(C)c1=O showed a Kd [6] of 3.2 nM, a Kd [7] of 5.2 nM and a Kd [8] of 2.3 nM. For the same molecule, the Kd [9] was 2.9 nM, the Kd [10] was 6.5 nM and the Kd [11] was 7.6 nM. The Kd [12] was 3.1 nM.
For CCNC(=O)NCCSC[C@H]1O[C@@H](n2cnc3c(N)ncnc32)[C@H](O)[C@@H]1O, the IC50 [13] was 25000 nM and the IC50 [14] was 37000 nM.
CC[C@H](C)[C@H](NC(C)=O)C(=O)N[C@@H](CCC(=O)O)C(=O)N[C@H](C(=O)N[C@H](C=O)CC(=O)O)[C@@H](C)O (Ac-IETD-aldehyde) was tested, and the IC50 (Caspase-8 [15]) was 5 nM.
In the case of CC(=O)N[C@@H](CC(C)C)C(=O)N[C@@H](CCC(=O)O)C(=O)N[C@@H](Cc1cnc[nH]1)C(=O)N[C@@H](CC(=O)O)C(=O)CCl (Ac-LEHD-CH2Cl), the IC50 (Caspase-9 [16]) is reported as 72.8 nM.
CN(C)CCCN(CC[C@H](N)C(=O)O)C[C@H]1O[C@@H](n2cnc3c(N)ncnc32)[C@H](O)[C@@H]1O showed an IC50 [17] of 130 nM and a Ki [17] of 14 nM.
CN(C)Cc1ccc(S(=O)(=O)n2ccc(/C=C/C(=O)NO)c2)cc1 gave an IC50 (Histone deacetylase 3) of 50.1 nM.
For CC(C)[C@H](NC(=O)[C@H](CCC(=O)O)NC(=O)[C@H](C)NC(=O)OC(C)(C)C)C(=O)N[C@H](C=O)CC(=O)O (Boc-AEVD-aldehyde), the Ki (Caspase-1) was under 12 nM, the Ki (Caspase-3 [18]) was 42 nM and the Ki (Caspase-6) was 52 nM. The Ki (Caspase-8 [19]) was 1.6 nM and the Ki (Caspase-9 [20]) was 48 nM.
For CC(=O)N[C@H](C(=O)N[C@@H](CC(=O)O)C(=O)N[C@H](C(=O)N[C@@H](C)C(=O)N[C@H](C=O)CC(=O)O)C(C)C)C(C)C (Ac-VDVAD-aldehyde), the Ki (Caspase-2) was 3.5 nM, the Ki (Caspase-3 [21]) was 1 nM and the Ki (Caspase-7) was 7.5 nM.
O=C(Nc1ccccc1C(=O)O)c1cc(S(=O)(=O)c2ccccc2)ccc1Cl was tested, and the IC50 [22] was 11 nM and the Ki [22] was 5.02 nM.
